{"source": "patent US5072011A", "about": "“Pt(IV) complexes” (Johnson Matthey, Inc., priority 1990, dated 1991)", "key": {"[1]": {"conditions": "common organic solvents, e.g., acetone, methylene chloride; cited from earlier work"}, "[2]": {"system": "ADJ/PC6 tumor", "assay": "antitumor activity using ADJ/PC6 tumor in mice", "type": "in vivo", "conditions": "for P.O. ED90 / P.O. TI: oral (P.O.); for P.O. TI / I.P. TI: TI from LD50 and ED90; for I.P. ED90 / I.P. TI: parenteral (I.P.)", "procedure": "(§1) Complexes according to the invention were tested for antitumor activity using ADJ/PC6 tumor in mice. The complexes were administered parenterally (I.P.) or orally (P.O.)."}, "[3]": {"system": "mice", "assay": "lethality (LD50) in mice, ADJ/PC6 antitumor test", "type": "in vivo", "conditions": "for P.O. LD50: oral (P.O.); for I.P. LD50: parenteral (I.P.)", "procedure": "as §1"}}}
{"compound": "N.N.O=C([O-])C1(C(=O)[O-])CCC1.[Pt+2]", "note": "[carboplatin]", "values": [{"measurement": "solubility in water / organic solvents (in words), prior-art complexes", "setting": "[1]", "result": "dissolve more readily in water than they do in common organic solvents"}]}
{"compound": "c-t-c-PtCl2 (O2 CCH2 CH3)2 (NH3)(n-C3 H7 NH2) [Compound 9 (Table 2)]", "values": [{"measurement": "P.O. ED90", "setting": "[2]", "result": 8.6, "unit": "mg/kg"}, {"measurement": "P.O. TI", "setting": "[2]", "result": 13.7}, {"measurement": "I.P. ED90", "setting": "[2]", "result": 5.6, "unit": "mg/kg"}, {"measurement": "I.P. TI", "setting": "[2]", "result": 7.4}, {"measurement": "P.O. LD50", "setting": "[3]", "result": 118, "unit": "mg/kg"}, {"measurement": "I.P. LD50", "setting": "[3]", "result": 41.5, "unit": "mg/kg"}]}
{"compound": "c-t-c-PtCl2 (O2 CCH3)2 (NH3)(n-C3 H7 NH2) [Compound 8 (Table 2)]", "values": [{"measurement": "P.O. ED90", "setting": "[2]", "result": 18, "unit": "mg/kg"}, {"measurement": "P.O. TI", "setting": "[2]", "result": 13.1}, {"measurement": "I.P. ED90", "setting": "[2]", "result": 3.1, "unit": "mg/kg"}, {"measurement": "I.P. TI", "setting": "[2]", "result": 11.3}, {"measurement": "P.O. LD50", "setting": "[3]", "result": 235, "unit": "mg/kg"}, {"measurement": "I.P. LD50", "setting": "[3]", "result": 35, "unit": "mg/kg"}]}
